Source: patent publication US20240050449A1, “Use of Acetyltanshinone IIA in Preparation of Medicament for Treating Lung Cancer and Medicament for Treating Lung Cancer” (UNIVERSITY OF MACAU, priority 2022, published 2024)

Tests used:
[1] = Body weight, deaths and toxicity in the xenograft study; conditions: 25 mg/kg intraperitoneally every 3 days for 31 days
Description: (§1) Cell line xenograft experiments were performed in 6-week-old female nude mice, 4×10^6 A549 cells were mixed 1:1 with matrigel-basement membrane matrix (Corning) and injected subcutaneously into nude mice. Tumors were allowed to grow to around […] and mice were randomly selected to receive treatment with ATA (25 mg/kg) or Erlotinib (25 mg/kg) intraperitoneally every 3 days for 31 days. ATA was formulated with 25% ethanol, 60% PEG300 (Sigma-Aldrich), and 15% Tween 80 (Sigma-Aldrich). Erlotinib was formulated in 5% DMSO, 30% PEG300, 5% Tween 80 and 60% H2O. Mouse body weight and tumor volume were measured every 3 days by a scale and caliper. Tumor volume (mm^3) was calculated using the formula. π/6×length (mm)×[width (mm)]^2. At least 6 mice in the control and treatment groups were evaluated during the study. All mice were sacrificed after 31 days of drug treatment, tumors were collected, and tumor weights were recorded. All animal studies were conducted in accordance with the requirements of the Animal Research Ethics Committee of Macao University and in compliance with all relevant ethical requirements.
(§2) To determine if ATA could also produce the same effect in vivo, this example injected A549 cells subcutaneously into nude mice to form tumor xenografts. Mice were randomly assigned to three groups. When the size of each tumor increased to a volume of approximately 100 mm^3, mice were injected intraperitoneally with vehicle control, ATA (25 mg/kg), or Erlotinib (25 mg/kg) every 3 days for 31 days. The tumor size and body weight of each mouse were measured every 3 days until the end of the animal experiment on day 31.

A549 cells [2] = assay: Transwell cell migration assay; format: cell-based; conditions: 1 μM
Description: (§3) Cell migration and invasion assays were performed in a transwell chamber (Corning, #3422) with a pore size of 8 μm. Cells were treated with different concentrations of ATA and Erlotinib for 48 h, then harvested and resuspended in a serum-free medium. Cells (1×10^4) were added to the upper side of the transwell chamber and fresh medium containing 10% FBS was added to the lower side. Cells were allowed to migrate from the upper side to the lower side of the chamber at 37° C. for 24 h. Membranes from the cell chamber were fixed with 4% paraformaldehyde for 20 min. The cells remaining on the upper side of the membrane were gently removed with a cotton swab and stained with 1% crystal violet for 20 min to stain the cells migrating to the other side of the transwell chamber. The membrane was then cut and fixed on a glass slide. The migrated cells on each slide were imaged with a Leica M165-FC microscope. For the transwell invasion assay, a Matrigel solution (Corning, #356230) was diluted to one-thirtieth with serum-free medium and applied to the upper side of the precoated chamber for 2 h, after the Matrigel had solidified, the cells were added to the upper side of the transwell chamber. The following procedure is identical to the migration assay. Migrated and invaded cells were quantified using ImageJ software.

[3] = system: A549 cell-derived xenograft tumors; assay: Mouse xenograft study; format: in vivo, nude mice; conditions: 25 mg/kg intraperitoneally every 3 days, day 31
Description: as §1, §2

EGFR = assay: Western blot, EGFR protein levels in drug-resistant NSCLC cells; format: cell-based; conditions: A549 and H1650 cells, 2 μM, 48 h
Description: Cells were washed once with PBS and frozen in RIPA lysis buffer containing protease and phosphatase inhibitors (Sigma-Aldrich) for 30 min. After sonication and centrifugation, the total protein concentration was determined by protein assay using Bio-Rad concentrated dye reagent (Bio-Rad). Equal amounts of protein ([…]) from each sample were separated by SDS-PAGE and electrotransferred to nitrocellulose membranes (GE Healthcare). Detection was performed on the membrane with a 1:1000 dilution of specific primary antibody followed by incubation with a 1:2000 dilution of the HRP conjugated secondary antibody. Finally, immunoreactivity is detected with a chemiluminescent substrate (Clarity Western ECL substrate; Bio-Rad). […] Aurora A (#ab13824) and PLK1 (#ab189139) antibodies were from Abcam.

H1650 cells [4] = assay: MTT cell viability assay, H1650 cells; format: cell-based; conditions: Homo sapiens, NCI-H1650, MTT, 72 h
Description: (§4) Cells were seeded at a density of 3×10^3 per well in 96-well plates, allowed to attach overnight, and treated with various concentrations of agent. After 72 h of treatment, 10 μL of MTT solution (5 mg/mL) was added to each well and cultured in the plate for 4 h. The crystallized formazan was dissolved in 100 μL of 10% (w/v) SDS and 0.01 mol/L HCl solution for 24 h, and then the value was read by spectrophotometry at 595 nm using a microplate reader.

[5] = system: drug-resistant NSCLC cells (A549, H358, H1975, H1650); assay: MTT assay, summary over all four cell lines; format: cell-based; conditions: A549, H358, H1975, H1650; MTT, 72 h; read-out: IC50 values, range over the four cell lines
Description: as §4

H358 cells = assay: MTT cell viability assay, H358 cells; format: cell-based; conditions: Homo sapiens, NCI-H358, MTT, 72 h
Description: as §4

A549 cells [6] = assay: MTT cell viability assay, A549 cells; format: cell-based; conditions: Homo sapiens, MTT, 72 h
Description: as §4

A549 cells [7] = assay: Transwell Matrigel invasion assay; format: cell-based; conditions: 1 μM
Description: as §3

H1975 cells [8] = assay: Spheroid formation experiment, H1975 cells; format: cell-based; conditions: 2 μM, 0 to 8 days
Text: The density of H1975 was 500 cells per well and the density of H1650 was 1000 cells per well in an ultra-low adhesion round bottom 96 well plate (Corning, #7007).

H1975 cells [9] = assay: MTT cell viability assay, H1975 cells; format: cell-based; conditions: Homo sapiens, NCI-H1975, MTT, 72 h
Description: as §4

H1650 cells [10] = assay: Spheroid formation experiment, H1650 cells; conditions: 2 μM, 0 to 8 days
A549 and H1650 cells = assay: Protein synthesis rate (click-iT HPG Alexa Fluor 594 Protein Synthesis Assay Kit); format: cell-based; conditions: 2 μM, 48 h
Description: In FIG. 3 (A) is protein levels of p-Akt, Akt, p-mTOR, mTOR, p-p70S6K, p70S6K, p-S6RP, and S6RP determined by Western blot analysis for A549, H358, H1975, and H1650 cells treated with ATA (1 or 2 μM) for 48 h. (B) is A549 and H1650 cells treated with ATA (1 or 2 μM) or the protein synthesis inhibitor […] (CHX, 35 μM), respectively, for 48 h. The rate of protein synthesis was determined using the click-iT™ HPG Alexa Fluor™ 594 Protein Synthesis Assay Kit. The intensity of Texas Red fluorescence in the stained image represents the rate of protein synthesis. Quantification of the rate of protein synthesis is shown. ****P<0.0001 was based on a one-way analysis of variance followed by Tukey's multiple comparison test. Scale bar, 50 μm. […] Protein levels of p-p70S6K. p70S6K. p-S6RP, and S6RP were determined by Western blot analysis. […] The rate of protein synthesis was determined using the click-iT™ HPG Alexa Fluor™ 594 Protein Synthesis Assay Kit. The intensity of Texas Red fluorescence in the stained image represents the rate of protein synthesis. Quantification of the rate of protein synthesis is shown. *P<0.05 and **P<0.01 were based on a one-way analysis of variance followed by Tukey's multiple comparison test. […] Protein levels of p70S6K. p-p70S6K, S6RP, and p-S6RP were determined by Western blot analysis. […] Data are expressed as the mean±SD of three independent experiments.

p70S6K = molecular target: T1, p70S6K (Homo sapiens, UniProt P23443); assay: Western blot, p70S6K protein levels in drug-resistant NSCLC cells; format: cell-based; conditions: A549 and H1650 cells, 2 μM, 48 h
T1 construct: endogenous in cells; host or cells: A549, H358, H1975, H1650 for the Western blots
T1 sequence (P23443 whole entry): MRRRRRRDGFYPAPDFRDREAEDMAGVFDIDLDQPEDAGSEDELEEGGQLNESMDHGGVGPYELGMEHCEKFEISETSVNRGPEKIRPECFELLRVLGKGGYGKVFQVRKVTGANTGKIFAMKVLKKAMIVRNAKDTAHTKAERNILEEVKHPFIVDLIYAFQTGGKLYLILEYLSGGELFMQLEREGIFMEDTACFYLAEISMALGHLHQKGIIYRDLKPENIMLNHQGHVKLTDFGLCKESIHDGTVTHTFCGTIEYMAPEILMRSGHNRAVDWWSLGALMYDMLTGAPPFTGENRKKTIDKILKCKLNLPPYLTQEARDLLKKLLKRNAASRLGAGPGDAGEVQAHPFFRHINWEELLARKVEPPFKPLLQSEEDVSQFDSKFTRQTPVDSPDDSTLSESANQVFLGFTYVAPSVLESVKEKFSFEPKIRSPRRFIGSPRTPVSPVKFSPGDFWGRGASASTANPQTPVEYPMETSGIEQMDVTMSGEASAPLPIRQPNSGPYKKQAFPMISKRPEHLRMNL
Description: Cells were washed once with PBS and frozen in RIPA lysis buffer containing protease and phosphatase inhibitors (Sigma-Aldrich) for 30 min. After sonication and centrifugation, the total protein concentration was determined by protein assay using Bio-Rad concentrated dye reagent (Bio-Rad). Equal amounts of protein ([…]) from each sample were separated by SDS-PAGE and electrotransferred to nitrocellulose membranes (GE Healthcare). Detection was performed on the membrane with a 1:1000 dilution of specific primary antibody followed by incubation with a 1:2000 dilution of the HRP conjugated secondary antibody. Finally, immunoreactivity is detected with a chemiluminescent substrate (Clarity Western ECL substrate; Bio-Rad). EGFR (#4267S), MET (#8198S), p-Akt (#9271L), akt (#9272S), p-mTOR (#5536S), mTOR (#2983S), p-p70S6K (#9234S), p70S6K (#2708S), p-S6RP (#4857S), S6RP (#2217S), p-4E-BP1 (#9455S) antibodies. 4E-BP1 (#9644S), p53 (#2527S), p21 waf1/Cip1 (#2947S), survivin (#2808S), cyclin B1 (#12231S), cyclin D3 (#2936S) and GAPDH (#2118S) were purchased from Cell Signaling Technology. Aurora A (#ab13824) and PLK1 (#ab189139) antibodies were from Abcam.

SMILES | deaths during the treatment period [1] | weight of nude mice compared between groups [1] | reduction of migration ability (A549 cells [2]) | reduction of tumor size compared to the control group [3] | reduction of tumor weight [3] | protein levels of EGFR (EGFR) | IC50 (H1650 cells [4]) | IC50 [5] | IC50 (H358 cells) | IC50 (A549 cells [6]) | reduction of invasion ability (A549 cells [7]) | spheroid growth / sphere size (H1975 cells [8]) | IC50 (H1975 cells [9]) | spheroid growth / sphere size (H1650 cells [10]) | reduction (inhibition ratio) of protein synthesis (A549 and H1650 cells) | levels of p70S6K (p70S6K)
C#Cc1cccc(Nc2ncnc3cc(OCCOC)c(OCCOC)cc23)c1 [Erlotinib, reference compound] | no mice died | no difference | did not | 32.5% | did not significantly reduce | significantly increased | 22.1 ± 0.59 µM | 10 to 22 µM | 21.5 ± 1.47 µM | 19.6 ± 0.28 µM | did not | did not decrease but significantly increased | 10.6 ± 1.27 µM | less inhibition in H1650 cells than ATA |  | 
CCc1cncnc1N1CCN(Cc2nc3ccc(C(F)(F)F)cc3[nH]2)CC1 [PF-4708671, reference compound] |  |  |  |  |  |  |  |  |  |  |  |  |  |  | did not affect | did not decrease
CO[C@H]1C[C@@H]2CC[C@@H](C)[C@@](O)(O2)C(=O)C(=O)N2CCCC[C@H]2C(=O)O[C@H]([C@H](C)C[C@@H]2CC[C@@H](O)[C@H](OC)C2)CC(=O)[C@H](C)/C=C(\C)[C@@H](O)[C@@H](OC)C(=O)[C@H](C)C[C@H](C)/C=C/C=C/C=C/1C [Rapamycin, rapamycin] |  |  |  |  |  |  |  |  |  |  |  |  |  |  | 25-28% | 
